The record followed here is PubChem BioAssay (NCI).

What all share (test): NCI tumour cell line growth inhibition, 48 h
Assay [1] deals with 786-0 renal.
In assay [2] the test system is BT-549 breast.
The subject of assay [3] is CAKI-1 renal.
In assay [4] the test system is CCRF-CEM leukemia.
For assay [5], the system named is HCC-2998 colon.
Assay [6] deals with HCT-116 colon.
For assay [7], the system named is HL-60(TB) leukemia.
For assay [8], the system named is HT29 colon.
Assay [9] deals with NCI-H226 lung.
Assay [10] concerns NCI-H460 lung.
Assay [11] deals with OVCAR-8 ovarian.
Assay [12] deals with SF-295 CNS.
Assay [13] relates to SF-539 CNS.
Assay [14] concerns UO-31 renal.

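The compound was tested at five concentrations on cells cultured in 96-well plates, with a 48-hour exposure period. At the TGI there is no net growth.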 Where only a bound is given, the exact number is not on record here.

As to `CC1=CC(=O)c2ccc3c4ccccc4n(C)c3c2C1=O`, the TGI in [1] was over 100 µM; in [2] it was over 100 µM; in assay [3], over 67.5 µM; in [4], over 81.5 µM; in assay [5], over 100 µM; in assay [6], over 100 µM. Moreover, the TGI in assay [7] was over 72.3 µM; in assay [8], over 31.6 µM; in assay [9] it was over 100 µM; in assay [10], over 100 µM; in assay [11], over 100 µM; in assay [12], over 100 µM. In addition, the TGI in [13] and in [14] was over 100 µM in each case.

On to `COc1ccc(C)cc1NC(=S)N/N=C/c1ccco1`, for which the TGI in assay [1], in assay [2], in assay [3], in assay [4], in assay [5] and in assay [6] was over 100 µM each time. Also, the TGI is 86.2 µM in assay [7]; over 100 µM in assay [8]; over 100 µM in [9]; over 100 µM in assay [10]; over 100 µM in [11]; over 100 µM in assay [12]. The TGI in assay [13] and in assay [14] was over 100 µM throughout.

As for `COC(=O)c1ccc(C)cc1C1CN=NC12Cc1c(C)cccc1C2=O` (stereo not given), the TGI in assay [1] was over 100 µM; in assay [2], over 70.1 µM; in assay [3], over 100 µM; in assay [4] it was over 100 µM; in assay [5], over 100 µM; in assay [6], over 86.9 µM. Besides, the TGI in assay [7] is 71.1 µM; in assay [8], over 100 µM; in assay [9], over 90.8 µM; in assay [10], over 100 µM; in assay [11], over 92.4 µM; in assay [12], over 100 µM. Moreover, the TGI in assay [13] and in assay [14] was over 100 µM throughout.

`CC(=O)O[C@H]1[C@@H](N2CCCCC2)C[C@H]2[C@@H]3CC=C4C[C@@H](N5CCCC5)CC[C@]4(C)[C@H]3CC[C@@]21C`: the TGI was over 100 µM in assay [1]; over 100 µM in [2]; over 100 µM in [3]; over 100 µM in [4]; 34.4 µM in assay [5]; over 100 µM in assay [6]. Moreover, the TGI in assay [7], in assay [8], in assay [9], in assay [10], in assay [11] and in assay [12] was over 100 µM throughout. Moreover, the results for the TGI in assay [13] and in assay [14] were 34.5 µM and over 100 µM, respectively.

For `Cc1cc(NS(=O)(=O)c2ccc(NC(=O)c3ccc4nc5ccccc5c(Nc5ccc(S(N)(=O)=O)cc5)c4c3)cc2)no1`, the TGI in assay [1] is 30.8 µM; in assay [2], 67.5 µM; in assay [3], over 100 µM; in assay [4] it was 78.3 µM; in assay [5] it was over 100 µM; in assay [6], 63.2 µM. Moreover, the TGI in assay [7] was 56.2 µM; in assay [8] it was 72.2 µM; in assay [9], over 100 µM; in assay [10] it was 53.1 µM; in assay [11], 66 µM; in assay [12], over 100 µM. Moreover, the TGI in assay [13] was 80.9 µM; in [14], 43.4 µM.

Turning to `COc1ccc(-c2c(C#N)c(N)nc(Sc3ccccc3N)c2C#N)cc1`, the TGI in assay [1] is 32.3 µM; in [2], over 100 µM; in [3] it was over 65.9 µM; in [4] it was over 100 µM; in assay [5], over 100 µM; in assay [6] it was over 100 µM. The TGI in [7] was over 100 µM; in [8], over 100 µM; in assay [9] it was over 100 µM; in [10] it was over 100 µM; in [11], 45.7 µM; in [12] it was 56.6 µM. Also, the TGI in assay [13] was 56.9 µM; in assay [14] it was over 100 µM.

For the compound `c1ccc([P+](Cc2ccc(C[P+](c3ccccc3)(c3ccccc3)c3ccccc3)s2)(c2ccccc2)c2ccccc2)cc1`, the TGI in assay [1], in assay [2], in [3], in assay [4], in assay [5] and in [6] was over 100 µM throughout. For the same compound, the TGI in assay [7], in [8], in [9], in [10], in [11] and in assay [12] was over 100 µM in each case. Further, the TGI in assay [13] and in assay [14] was over 100 µM throughout.

With `CCCCCCCCCCCCCCCCNc1nc(=O)n(C2CC(O)C(COP(=O)(O)OC3CC(n4cc(F)c(=O)[nH]c4=O)OC3CO)O2)cc1F` (stereo not given), the TGI in assay [1] was over 100 µM; in [2] it was 35.3 µM; in assay [3] it was over 100 µM; in assay [4], 17.6 µM; in [5] it was 11 µM; in [6], over 100 µM. For the same compound, the TGI in assay [7] was 19 µM; in assay [8] it was 26.5 µM; in assay [9], over 100 µM; in assay [10] it was 22.6 µM; in [11], 44.2 µM; in assay [12], 18.9 µM. For the same compound, the TGI was 0.956 µM in assay [13] and over 46.8 µM in assay [14].

Turning to `Cc1ccc2c(n1)C(=O)c1cc(C)c(C)cc1C2=O`, the TGI in [1], in assay [2], in assay [3], in [4], in [5] and in [6] was over 100 µM throughout. For the same compound, the TGI in assay [7], in assay [8], in [9], in [10], in assay [11] and in assay [12] was over 100 µM throughout. Besides, the TGI in [13] and in assay [14] was over 100 µM each time.

As to `Clc1nc(NC23CC4CC(CC(C4)C2)C3)nc(NC23CC4CC(CC(C4)C2)C3)n1`, the TGI is over 100 µM in assay [1]; over 100 µM in assay [2]; over 100 µM in [3]; over 90.8 µM in [4]; over 100 µM in [5]; over 100 µM in assay [6]. Also, the TGI in [7] was 87.5 µM; in [8], over 100 µM; in [9], over 100 µM; in assay [10], over 100 µM; in assay [11], over 100 µM; in assay [12] it was over 100 µM. Moreover, the TGI in assay [13] and in assay [14] was over 100 µM in each case.
